From PMC8950868, “Identifying Human PTP1B Enzyme Inhibitors from Marine Natural Products: Perspectives for Developing of Novel Insulin-Mimetic Drugs” (Pharmaceuticals, 2022)
Entries after “also recorded” stand apart in the source; their conditions may differ.

Key:
human recombinant AR = biological target: T1, human recombinant AR (Homo sapiens, UniProt P15121); assay: AR enzymatic assay (NADPH oxidation, L-idose substrate); type: biochemical; settings: for remaining activity at 71 µM: 71 µM (maximal concentration used), read-out: % residual activity of human AR
T1 construct: made in house
Protocol: The human recombinant AR, purified to electrophoretic homogeneity as described, was used as target enzyme. AR activity was determined at 37 °C as previously described by evaluating the decrease in absorbance at 340 nm linked to NADPH oxidation using a Biochrom Libra S60 spectrophotometer. The standard assay mixture contained 0.25 M sodium phosphate buffer pH 6.8, 0.18 mM NADPH, 0.42 M ammonium sulfate, 0.5 mM EDTA and 4.7 mM D,L-glyceraldehyde. One unit of enzyme activity is the amount that catalyses the conversion of 1 µmol of substrate/min in the above assay conditions. For AR inhibition studies, 0.8 mM L-idose was used as substrate in the conditions described above, in the presence of 10 mU of enzyme and of a final concentration of DMSO of 0.7% (v/v).

C2C12 cells [1] = assay: Insulin signalling pathway analysis (western blot of pIR and pAkt); type: cell-based, murine; settings: for Effect on insulin signalling pathway: differentiated C2C12 cells
Protocol: C2C12 cells were plated on P35 dishes, grown until 80% confluence and then incubated in the presence of differentiation medium (DMEM-high glucose (4500 mg/L) supplemented with 2% Horse serum (HS, Euroclone), 2 mM glutamine, 100 U/mL penicillin, and 100 μg/mL streptomycin) for 4 days. After this time, cell plates were washed with PBS and cells stimulated with 10 nM insulin, compound 3 or insulin-compound 3 combination for 30 min. After cell plates were washed with cold PBS solution and lysed using 1X Leammli sample buffer. Samples were store at 4 °C for 15 min and then protein solutions were collected and boiled for 5 min. Proteins were analysed by SDS-PAGE and then transferred on a PVDF membrane by western blot. Phosphorylation status of insulin receptor and the kinase Akt was evaluated using specific antibodies (pIR β subunit, Y1162/1163 (sc-25103-R) and β-actin, clone C-4 (sc-47778) were from Santa Cruz Biotechnology (Santa Cruz, CA, USA); IR β subunit, clone CT-3 (MABS65) was from Merck-Millipore (Burlington, MA, USA). Akt (9272S) and p-Akt (9271S) antibodies were from Cell Signalling Technology (Danvers, MA, USA). Secondary antibodies were from Santa Cruz Biotechnology (Santa Cruz, CA, USA). Detection was performed using Clarity western ECL substrates (Bio-Rad Laboratories, Inc.).
Figure 12 Effect of compound 3 on insulin signalling pathway. C2C12 cells were incubated with compound 3 (20 µM final concentration) for 30 min, in the presence or not of insulin (10 nM). After that, cells were lysed, and cellular extracts were analysed to evaluate the phosphorylation status of IR and Akt. (A), western blot image; (B,C), quantitation of western blot carried out using Kodak MI software. Data were normalized respect to control sample. All tests were carried out in triplicate. Ctr: control experiment; Ins: cells treated with 10 nM insulin; 3: cells treated with compound 3 (20 µM); 3 + Ins, cells treated with insulin and compound 3. Statistical analysis was carried out using one way ANOVA followed by Tukey’s HSD test for pairwise comparisons. * p < 0.05.

C2C12 cells [2] = assay: Glucose uptake assay (2-NBDG, flow cytometry); type: cell-based, murine; settings: 20 µM compound alone, 30 min, then 2-NBDG 3 h
Protocol: To evaluate glucose uptake, C2C12 cells were grown until 80% confluence and then incubated in starvation medium for 24 h. After this time, cells were stimulated with 10 nM insulin (Humalog Lispro, Eli Lilly), 20 µM compound 3 or 3-insulin combination for 30 min and then incubated in the presence of 40 µM of 2-NBDG (Invitrogen) for 3 h. Then, cells were washed with PBS, tripsinized, pelleted by centrifugation (1000× g for 5 min), then suspended in 500 µL of PBS. The amount of 2-NBDG uploaded by cells was determined analysing cells by using a flow cytometer apparatus (FACSCanto II, BD Biosciences, San Jose, CA, USA). For each sample 1 × 10^4 events were acquired. Data obtained were then analysed with FlowJo software. Cells autofluorescence values were determined before sample analysis and subtracted to each sample.
Figure 13 Glucose uptake assay. C2C12 cells were treated with 10 nM insulin, 20 µM compound 3 or 3-insulin combination and then incubated in the presence of 2-NBDG for 3 h. After that, the glucose uptake was analysed by flow cytometry analysis. Each test was carried out in quadruplicate. For each test, 10,000 events at least were analysed. (A), quantification of the mean fluorescence values of C2C12 cells. Data represents the mean value ± SD (n = 4). […] (B), representative cell fluorescence distribution obtained by analysing data with the FlowJo software. […]

GST–PTP1B fusion protein = system: GST–PTP1B fusion protein; set-up: method as in PMID 27064611; settings: different pH value, read-out: IC50 on PTP1B previously determined; cited from earlier work
[3] = 20 µM compound + 10 nM insulin, versus insulin alone
[4] = 20 µM compound alone, 30 min, versus control cells

CCCCC[C@@H](OP(=O)(O)O)[C@@H](O)CC[C@H](CCCC)OC(C)=O (relative stereo) [Compound 8a]
remaining activity at 71 µM (human recombinant AR): 87 ± 2% | Effect on insulin signalling pathway (C2C12 cells [1]): did not improve the insulin signalling pathway; also recorded: completely inactive

CCCCCCCCCCCCCCC(OP(=O)(O)O)C(O)CCCO (centres unmarked) [Compound 3]
AR inhibition (in words) (human recombinant AR): ineffective | remaining activity at 71 µM (human recombinant AR): 82 ± 3% | Phosphorylation level of Akt (C2C12 cells [1]; [3]): not statistically different | Phosphorylation level of insulin receptor (IR) (C2C12 cells [1]; [3]): not statistically different | Phosphorylation level of Akt (C2C12 cells [1]; [4]): increased with respect to control cells | Phosphorylation level of insulin receptor (IR) (C2C12 cells [1]; [4]): increased with respect to control cells | Effect on insulin signalling pathway (C2C12 cells [1]): acts as an insulin-mimetic agent; also recorded: evident insulin-mimetic activity | Glucose uptake (2-NBDG) (C2C12 cells [2]): incorporated more glucose than insulin-stimulated C2C12 cells | IC50 (GST–PTP1B fusion protein): 24 ± 7 µM
